Assay results reported in patent US20200199102A1, “COMPOUNDS THAT PARTICIPATE IN COOPERATIVE BINDING AND USES THEREOF” (Revolution Medicines, Inc., priority 2017, published 2020).
Where “and” joins values, the source holds several entries; their conditions need not be identical. Identical values can stand only once. Like-named read-outs stand apart in the source and are kept apart here. Blank lines part the entries; values can stand above or below the compound they belong to.

Tests used:
HeLa-FKBP12 cells = experiment: Biosensor cell permeability assay (FKBP destabilizing mutant), HeLa-FKBP12 cells; type: cell-based; conditions: 72 hrs
Procedure: Cell permeability of compounds can be determined using the following protocol.
This protocol utilizes a modified FKBP or cyclophilin destabilizing mutant to determine the bioactivity of FKBP binding compounds or cyclophilin binding compounds in whole cell assay.
DMEM, DMEM without Phenol Red, 10% FBS, 1× Sodium Pyruvate, 1× Glutamax. Add 125 μl of media with compound per well.
Plate HeLa-FKBP12 cells (for FKBP binding compounds) or HeLa-CyclophilinA cells (for cyclophilin binding compounds) and seed overnight at 5 k/well (approximately ˜18 hrs.). Using a multi-channel pipet, take out the old media and add ˜125 ul of new media with compounds. Compounds are diluted using DMEM without Phenol Red, 10% FBS, 1× Sodium Pyruvate, 1× Glutamax. Add 125 μL of media with compound per well. Cells are treated with compounds at concentration: 30, 10, 3.33, 1.11, 0.37, 0.12, 0.04 and 0.013 uM. Time points are taken at 72 hrs and plate read using plate reader with excitation/emission: 575/620.
Cell binding/permeability is calculated in fold-change (Total RFU of treated samples/total RFU of DMSO treated samples or total RFU above background (Total RFU minus total RFU of DMSO treated samples).

CEP250 [1] = molecular target: T1, CEP250 (Homo sapiens, UniProt Q9BV73); experiment: SPR binding of CEP250 (analyte) to immobilized FKBP12-F2 binary complex; conditions: 1 μM F2
T1 construct: CEP25011.4 (residues 2134-2231) (in-house); made in house
Procedure: This protocol utilizes Surface Plasmon Resonance (SPR) as a method to determine kinetics (KD, Ka, Kd) for the binding of CEP250 (analyte) to immobilized FKBP12-F2 binary complex (ligand).
Experiments are performed at 25° C. […] Approximately 200-400 RU of FKBP12 is immobilized on one of two flow cells of an activated NTA chip. The second flow cell is not activated as a reference for non-specific interaction of the analyte to the sensor chip. […] The surface is regenerated between analyte injections with 350 mM EDTA.
The BiaEvaluation software program is used for data fitting. All data is reference subtracted against both the reference flow cell and a buffer injection. For kinetic analyses, data is locally fit to a 1:1 interaction model.

CEP250 [2] = molecular target: T2, CEP250 (Homo sapiens, UniProt P62942+Q9BV73); experiment: Crystal structure analysis of FKBP12-compound-CEP250 ternary complexes
T2 construct: CEP25011.4 (residues 2134-2231) (in-house); made in house
Procedure: This protocol describes the crystallization and structure determination method for structures of FKBP12-Compound 2-CEP250 and FKBP12-F11-CEP250 ternary complexes.
A 3:1 molar excess of FKBP12-F2 or FKBP12-F11 binary complex is added to CEP25011.4 and incubated at 4° C. overnight to complete ternary complex formation. Pure ternary complex is isolated by gel filtration purification on a Superdex 200 column in 12.5 mM HEPES pH 7.4, 75 mM NaCl. Purified complex (at 10-20 mg/ml) is subjected to crystallization at 22° C. using sitting drop vapor diffusion. FKBP12-F2-CEP250 crystals grow in a well solution containing 0.2 M sodium malonate, 0.1 M HEPES 7.0, 21% PEG 3350. FKBP12-F11-CEP250 crystals grow in a well solution containing 0.1 M Tris pH 8.5, 0.2 M trimethylamine N-oxide, 22-24% PEG2000 MME. For data collection crystals are transferred to a solution containing mother liquor supplemented with 20-25% glycerol, and then frozen in liquid nitrogen. Diffraction datasets are collected at the Advanced Photon Source (APS) and processed with the HKL program. Molecular replacement solutions are obtained using the program PHASER in the CCP4 suite, using the published structure of FKBP12 (PDB-ID 1FKD) as a search model. Subsequent model building and refinement are performed according to standard protocols with the software packages CCP4 and COOT.

CEP250 [3] = molecular target: T1, CEP250; experiment: ITC binding of FKBP12-compound binary complexes to CEP250; conditions: FKBP12 10 μM + ligand 20 μM in cell, 298 K; for Kd: calculated from Ka = 1/Kd
FKBP12 [4] = molecular target: T3, FKBP12 (Homo sapiens, UniProt P62942); experiment: AlphaLISA inhibition of binding of biotinylated FK506 to FLAG tagged FKBP12; design: made in house; conditions: read-out: Binding affinity to FKBP12 (by displacement of FK506)
Description: The binding of compounds of the invention to FKBP12 can be determined using the following protocol.
This protocol utilizes Perkin Elmers AlphaLISA technology platform to detect FKBP binders by measuring the inhibition of binding of biotinylated FK506 to FLAG tagged FKBP12.
10×TBST Buffer (Boston BioProducts IBB-181), Biotinylated FK506 (in-house), FLAG tagged FKBP (in-house); anti-FLAG Donor beads (PerkinElmer AS103) and Streptavidin Acceptor beads (PerkinElmer AL125); Compounds in DMSO (in-house), FK506.
Add 20 uL of 12.5 nM FKBP-FLAG working stock to each well of the 96-well plate. Add 1 uL of test compound (100% DMSO) to each well of the plate using the Janus MTD head and P20 tips (except control wells). Add 1 uL of DMSO to negative control wells and 1 uL of 50 uM FK506 solution to positive control wells. In the dark, add 20 uL of combined Donor/Acceptor beads to each well. Incubate in the dark for 30 minutes at room temperature. In the dark, add 10 uL of 5 nM biotinylated FK506 working stock to each well. Incubate in the dark for 60 minutes at room temperature. Protect plate from light until reading on Biotek Synergy2 Plate Reader; Alphalisa 96-well protocol (680 excitation/615 emission).

FKBP12 [5] = molecular target: T3, FKBP12; experiment: SPR binding of compound (analyte) to immobilized FKBP12
Procedure: This protocol utilizes Surface Plasmon Resonance (SPR) as a method to determine kinetics (KD, Ka, Kd) for the binding of compound (analyte) to immobilized FKBP12 (ligand).
Compound in 100% DMSO (in-house), 10×HBS-P+ buffer (GE Healthcare BR-1006-71), Assay buffer (1×HBS-P+ buffer, 1% DMSO), 12×HIS tagged FKBP12 (in-house).
Experiments are performed at 25° C. Stock solution of 12×HIS tagged FKBP12 is diluted to 100 nM in assay buffer (1% DMSO final). Approximately 500-600 RU of FKBP12 is immobilized on one of two flow cells of an activated NTA chip. The second flow cell is not activated as a reference for non-specific interaction of the analyte to the sensor chip. Various concentrations of compound (1 nM-1 μM range), serially diluted into the same assay buffer (1% DMSO final), are injected onto the FKBP12 surface and reference surface at a flow rate of 10 μl/min. The surface is regenerated between analyte injections with 350 mM EDTA.
Experiments are performed at 25° C. Stock solution of 12×HIS tagged FKBP12 is diluted to 100 nM in assay buffer (1% DMSO final). Approximately 500-600 RU of FKBP12 is immobilized on one of two flow cells of an activated NTA chip. The second flow cell is not activated as a reference for non-specific interaction of the analyte to the sensor chip.

[6] = FKBP12-compound-CEP250 crystal structure
[7] = read-out: SPR affinity to FKBP12: KD, 25° C., Table 7

T3 sequence (P62942 whole entry, species assumed): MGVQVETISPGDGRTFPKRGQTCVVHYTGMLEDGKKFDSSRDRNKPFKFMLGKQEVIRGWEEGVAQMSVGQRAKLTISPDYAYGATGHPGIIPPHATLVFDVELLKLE
T2 sequence (Q9BV73 2134-2231): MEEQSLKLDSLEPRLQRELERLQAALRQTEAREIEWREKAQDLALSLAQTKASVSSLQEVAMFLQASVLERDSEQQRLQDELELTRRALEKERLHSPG
T2 sequence (P62942 whole entry, the tested form may be a part): as the sequence (P62942 whole entry, species assumed) above

SMILES: CC[C@H](Cc1ccccc1)[C@@H]1/C=C/C/C=C/C[C@@H](C)[C@H](O)[C@@H](C)[C@@H]2CC[C@@H](C)C(=O)C(O)(O2)C(=O)N2CCCC[C@H]2C(=O)O1 [Compound F2, (2S)-1-((4R,7S)-7-((2R,3S,4R,6E,9E,11R,12R)-12-benzyl-3,11-dihydroxy-4-methyltetradeca-6,9-dien-2-yl)-2-hydroxy-4-methyl-3-oxooxepane-2-carbonyl)piperidine-2-carboxylic acid C-11 lactone]
IC50 (HeLa-FKBP12 cells): < 1000 nM
Ka (CEP250 [1]; FKBP12/F2 complex to CEP25011.4 (residues 2134-2231)): 571000 M⁻¹ s⁻¹
Ka (CEP250 [1]; FKBP12/F2 complex to CEP25029.2 (residues 1982-2231)): 311000 M⁻¹ s⁻¹
buried surface area of CEP250 contributed by FKBP12 (CEP250 [2]; [6]): 663 Å^2
buried surface area of CEP250 contributed by the compound (CEP250 [2]; [6]): 232 Å^2 and 241 Å^2
total buried surface area of CEP250 (CEP250 [2]; [6]): 865 Å^2
total buried surface area of the ternary complex (CEP250 [2]; [6]): 1759 Å^2
binding interactions between compound and CEP250 that are van der Waals or pi-pi interactions (CEP250 [2]; ternary complex): 100%
ΔG (CEP250 [3]; CEP25011.4 68 μM in syringe): −40.75 kJ*mol −mol−1
ΔH (CEP250 [3]; CEP25011.4 68 μM in syringe): −49.37 kJ*mol −mol−1
−T*ΔS (CEP250 [3]; CEP25011.4 68 μM in syringe): 8.62 kJ*mol −mol−1
Kd (CEP250 [3]; CEP25011.4 68 μM in syringe): 70 nM
ΔG (CEP250 [3]; CEP25029.4 118 μM in syringe): −38.41 kJ*mol −mol−1
ΔH (CEP250 [3]; CEP25029.4 118 μM in syringe): −52.21 kJ*mol −mol−1
−T*ΔS (CEP250 [3]; CEP25029.4 118 μM in syringe): 13.80 kJ*mol −mol−1
Kd (CEP250 [3]; CEP25029.4 118 μM in syringe): 190 nM
IC50 (FKBP12 [4]): 1.5 nM
Ka (FKBP12 [5]; Example 10, 25° C., 1:1 interaction model): 45000 M⁻¹ s⁻¹
Kd (FKBP12 [5]; [7]): 12.6 nM

SMILES: CC1=CCC(O)CC(C(C)=CC(C)=CC2C=CC(O)C(O)C2)OC(=O)C2CCCCN2C(=O)CC2(O)OC(C(C)CC=CCC(O)C=C1)C(C)CC2C (centres unmarked) [Compound F6]
IC50 (HeLa-FKBP12 cells): < 1000 nM
IC50 (FKBP12 [4]): 60 nM
Kd (FKBP12 [5]; [7]): 141 nM

SMILES: CC(=CC1C=CC(O)C(O)C1)C=C(C)C1CC(O)CC1C(C)(O)C=CC(O)CC=CCC(C)C1OC(O)(CC(=O)N2CCCCC2C(=O)O)C(C)CC1C (centres unmarked) [Compound F23]
IC50 (HeLa-FKBP12 cells): > 1000 nM
IC50 (FKBP12 [4]): 4690 nM

Further lines, results first:

IC50 (HeLa-FKBP12 cells): < 1000 nM
IC50 (FKBP12 [4]): 0.3 nM
Kd (FKBP12 [5]; [7]): 0.23 nM
SMILES: COC1C(O)CCC(CC(C)C2CCCC=CCC(C)=CCC3OC(O)(C(=O)C(=O)N4CCCCC4C(=O)O2)C(C)CC3C)C1O (centres unmarked) [Compound F9]

IC50 (HeLa-FKBP12 cells): > 1000 nM
IC50 (FKBP12 [4]): 21.1 nM
Kd (FKBP12 [5]; [7]): 17.2 nM
SMILES: CCC1C=C(C)C(O)CCC(C)C=CC(O)C(C)C2CCC(C)C(O)(O2)C(=O)C(=O)N2CCCCC2C(=O)OC2C=CC(=CC2O)C=C(C)C1 (centres unmarked) [Compound F10]

buried surface area of CEP250 contributed by FKBP12 (CEP250 [2]; [6]): 590 Å^2
total buried surface area of CEP250 (CEP250 [2]; [6]): 831 Å^2
total buried surface area of the ternary complex (CEP250 [2]; [6]): 1648 Å^2
ΔG (CEP250 [3]; CEP25011.4 68 μM in syringe): −40.36 kJ*mol −mol−1
ΔH (CEP250 [3]; CEP25011.4 68 μM in syringe): −47.78 kJ*mol −mol−1
−T*ΔS (CEP250 [3]; CEP25011.4 68 μM in syringe): 7.41 kJ*mol −mol−1
Kd (CEP250 [3]; CEP25011.4 68 μM in syringe): 80 nM
ΔG (CEP250 [3]; CEP25029.4 118 μM in syringe): −36.74 kJ*mol −mol−1
ΔH (CEP250 [3]; CEP25029.4 118 μM in syringe): −58.48 kJ*mol −mol−1
−T*ΔS (CEP250 [3]; CEP25029.4 118 μM in syringe): 21.73 kJ*mol −mol−1
Kd (CEP250 [3]; CEP25029.4 118 μM in syringe): 360 nM
IC50 (FKBP12 [4]): 0.51 nM
Kd (FKBP12 [5]; KD, Example 10, 25° C., 1:1 interaction model): 15.6 nM
Kd (FKBP12 [5]; SPR affinity to FKBP12: KD, 25° C., Table 7): 21.5 nM
SMILES: CC[C@H](Cc1ccccc1)[C@@H]1CCCCCC[C@@H](C)[C@H](O)[C@@H](C)[C@@H]2CC[C@@H](C)C(=O)C(O)(O2)C(=O)N2CCCC[C@H]2C(=O)O1 [Compound F11, (2S)-1-((4R,7S)-7-((2R,3S,4R,11S,12R)-12-benzyl-3,11-dihydroxy-4-methyltetradecan-2-yl)-2-hydroxy-4-methyl-3-oxooxepane-2-carbonyl)piperidine-2-carboxylic acid C-11 Lactone]

IC50 (HeLa-FKBP12 cells): > 1000 nM
IC50 (FKBP12 [4]): 36.3 nM
Kd (FKBP12 [5]; [7]): 21.2 nM
SMILES: CC1=CC2=CC(O)C(C=C2)OC(=O)C2CCCCN2C(=O)C(=O)C2(O)OC(CCC2C)C(C)C(O)C=CC(C)CCC(O)C(C)=CC(C)C1 (centres unmarked) [Compound F12]
